# Measured values published in the supplement of paper PMC10307832.
# How the values were obtained:
# Experiment in all cases: relative viability (nuclei count vs DMSO), 5 days (fraction); higher = more cells survive
# [1] = compound: CCN(CCO)CCCC(C)Nc1ccnc2cc(Cl)ccc12 [Hydroxychloroquine]
# Procedure, shortened: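 On vehicle-anchored 1536-well plates, lung cancer cell lines held overnight at 37 °C were pinned with five library-drug doses (not always all listed) spaced by √10. With no medium change over 5 days, they were then fixed, permeabilised and Hoechst-stained in one step and imaged at 4×. MetaXpress counted nuclei, and viability is the median across plates of treated-well over vehicle-well nuclei. Acceptance needed control CV below 25% and at least one doubling.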
# [2] = compound: CCN(CCO)CCCC(C)Nc1ccnc2cc(Cl)ccc12 [Hydroxychloroquine] + CC(C)C[C@H](NC(=O)[C@H](Cc1ccccc1)NC(=O)c1cnccn1)B(O)O [Bortezomib] (partner 0.002 µM)
# Procedure, shortened: (§1)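 Lung cancer cell lines were seeded in 1536-well plates and dosed by pin tool the next day, with either a single drug or a fixed anchor-drug dose combined with five library-drug doses (not always all listed) spaced in √10 steps. Five days later, one step fixed the cells and stained their nuclei (final 0.05% Triton X-100, 1% formaldehyde, 1 ug/ml Hoechst), and nuclei were counted on 4× images. Relative viability is the nuclei count in treated wells divided by the count in vehicle wells, and each value is the median of duplicate plates.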
# [3] = compound: CCN(CCO)CCCC(C)Nc1ccnc2cc(Cl)ccc12 [Hydroxychloroquine] + CC1(C)CCC(c2ccc(Cl)cc2)=C(CN2CCN(c3ccc(C(=O)NS(=O)(=O)c4ccc(N[C@H](CCN5CCOCC5)CSc5ccccc5)c(S(=O)(=O)C(F)(F)F)c4)cc3)CC2)C1 [Navitoclax] (partner 0.5 µM)
# Procedure, shortened: as §1
# [4] = compound: CCN(CCO)CCCC(C)Nc1ccnc2cc(Cl)ccc12 [Hydroxychloroquine] + COc1cc2c(Oc3ccc(NC(=O)C4(C(=O)Nc5ccc(F)cc5)CC4)cc3F)ccnc2cc1OCCCN1CCOCC1 [Foretinib] (partner 0.25 µM)
# Procedure, shortened: as §1
# [5] = compound: CCN(CCO)CCCC(C)Nc1ccnc2cc(Cl)ccc12 [Hydroxychloroquine] + CS(=O)(=O)CCNCc1ccc(-c2ccc3ncnc(Nc4ccc(OCc5cccc(F)c5)c(Cl)c4)c3c2)o1 [Lapatinib] (partner 2 µM)
# Procedure, shortened: as §1
# [6] = compound: CCN(CCO)CCCC(C)Nc1ccnc2cc(Cl)ccc12 [Hydroxychloroquine] + CS(=O)(=O)N1CCN(Cc2cc3nc(-c4cccc5[nH]ncc45)nc(N4CCOCC4)c3s2)CC1 [Pictilisib] (partner 1 µM)
# Procedure, shortened: as §1
# [7] = compound: CCN(CCO)CCCC(C)Nc1ccnc2cc(Cl)ccc12 [Hydroxychloroquine] + C[C@@H](Oc1cc(-c2cnn(C3CCNCC3)c2)cnc1N)c1c(Cl)ccc(F)c1Cl [Crizotinib] (partner 1 µM)
# Procedure, shortened: as §1
# [8] = compound: CCN(CCO)CCCC(C)Nc1ccnc2cc(Cl)ccc12 [Hydroxychloroquine] + C[C@]1(O)C[C@@H](c2nc(-c3ccc4ccc(-c5ccccc5)nc4c3)c3c(N)nccn32)C1 [Linsitinib] (partner 1 µM)
# Procedure, shortened: as §1
# [9] = compound: CCN(CCO)CCCC(C)Nc1ccnc2cc(Cl)ccc12 [Hydroxychloroquine] + Cc1nc(NC(=O)N2CCC[C@H]2C(N)=O)sc1-c1ccnc(C(C)(C)C(F)(F)F)c1 [Alpelisib] (partner 2 µM)
# Procedure, shortened: as §1
# [10] = compound: CCN(CCO)CCCC(C)Nc1ccnc2cc(Cl)ccc12 [Hydroxychloroquine] + O=C(c1cc(Cc2n[nH]c(=O)c3ccccc23)ccc1F)N1CCN(C(=O)C2CC2)CC1 [Olaparib] (partner 8 µM)
# Procedure, shortened: as §1
cell line,measurement,setting,value
NCI-H1299,relative viability,[1]; 0.5 µM,1.02
same,relative viability,[1]; 1.581 µM,0.938
same,relative viability,[1]; 5 µM,1.01
same,relative viability,[1]; 15.81 µM,1.02
same,relative viability,[1]; 50 µM,1.02
same,relative viability,[2]; first compound 0.5 µM,1.01
same,relative viability,[2]; first compound 1.581 µM,1.01
same,relative viability,[2]; first compound 5 µM,1.04
same,relative viability,[2]; first compound 15.81 µM,1.03
same,relative viability,[2]; first compound 50 µM,0.942
same,relative viability,[3]; first compound 0.5 µM,1.05
same,relative viability,[3]; first compound 1.581 µM,1.01
same,relative viability,[3]; first compound 5 µM,1.02
same,relative viability,[3]; first compound 15.81 µM,1.05
same,relative viability,[3]; first compound 50 µM,1.04
same,relative viability,[4]; first compound 0.5 µM,1.09
same,relative viability,[4]; first compound 1.581 µM,1.05
same,relative viability,[4]; first compound 5 µM,1.14
same,relative viability,[4]; first compound 15.81 µM,1.12
same,relative viability,[4]; first compound 50 µM,1.06
same,relative viability,[5]; first compound 0.5 µM,0.965
same,relative viability,[5]; first compound 1.581 µM,0.914
same,relative viability,[5]; first compound 5 µM,0.903
same,relative viability,[5]; first compound 15.81 µM,0.919
same,relative viability,[5]; first compound 50 µM,0.936
same,relative viability,[6]; first compound 0.5 µM,0.805
same,relative viability,[6]; first compound 1.581 µM,0.682
same,relative viability,[6]; first compound 5 µM,0.867
same,relative viability,[6]; first compound 15.81 µM,0.845
same,relative viability,[6]; first compound 50 µM,0.746
same,relative viability,[7]; first compound 0.5 µM,0.999
same,relative viability,[7]; first compound 1.581 µM,0.937
same,relative viability,[7]; first compound 5 µM,0.91
same,relative viability,[7]; first compound 15.81 µM,0.98
same,relative viability,[7]; first compound 50 µM,0.693
same,relative viability,[8]; first compound 0.5 µM,1.03
same,relative viability,[8]; first compound 1.581 µM,0.633
same,relative viability,[8]; first compound 5 µM,1.03
same,relative viability,[8]; first compound 15.81 µM,0.973
same,relative viability,[8]; first compound 50 µM,1.06
same,relative viability,[9]; first compound 0.5 µM,0.999
same,relative viability,[9]; first compound 1.581 µM,1.04
same,relative viability,[9]; first compound 5 µM,1.03
same,relative viability,[9]; first compound 15.81 µM,1.12
same,relative viability,[9]; first compound 50 µM,0.996
same,relative viability,[10]; first compound 0.5 µM,0.997
same,relative viability,[10]; first compound 1.581 µM,0.974
same,relative viability,[10]; first compound 5 µM,0.947
same,relative viability,[10]; first compound 15.81 µM,1.01
same,relative viability,[10]; first compound 50 µM,0.917
